# Experimental data taken from the supplement of paper PMC10307832.
# Legend:
# Assay in all cases: relative viability (nuclei count vs DMSO), 5 days (fraction); higher = more cells survive
# VX-702 + Pictilisib = compound: NC(=O)c1ccc(N(C(N)=O)c2c(F)cccc2F)nc1-c1ccc(F)cc1F [VX-702] + CS(=O)(=O)N1CCN(Cc2cc3nc(-c4cccc5[nH]ncc45)nc(N4CCOCC4)c3s2)CC1 [Pictilisib] (partner 1 µM)
# Procedure, shortened: (§1)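 Cells from lung cancer lines were seeded into 1536-well plates and, one day later, dosed by pin tool. Treatments were either a single drug or a fixed dose of an anchor drug with five library-drug doses (not always all listed) in √10 steps. After 5 days, nuclei were stained in a one-step fixation (final 0.05% Triton X-100, 1% formaldehyde, 1 ug/ml Hoechst) and counted on 4× images, and relative viability is the treated-to-vehicle nuclei ratio, as the median of duplicate plates.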
# VX-702 + Vorinostat = compound: NC(=O)c1ccc(N(C(N)=O)c2c(F)cccc2F)nc1-c1ccc(F)cc1F [VX-702] + O=C(CCCCCCC(=O)Nc1ccccc1)NO [Vorinostat] (partner 1 µM)
# Procedure, shortened: as §1
# Dabrafenib + Pemetrexed = compound: CC(C)(C)c1nc(-c2cccc(NS(=O)(=O)c3c(F)cccc3F)c2F)c(-c2ccnc(N)n2)s1 [Dabrafenib] + Nc1nc2[nH]cc(CCc3ccc(C(=O)N[C@@H](CCC(=O)O)C(=O)O)cc3)c2c(=O)[nH]1 [Pemetrexed] (partner 0.2 µM)
# Procedure, shortened: as §1
# Dabrafenib + Olaparib = compound: CC(C)(C)c1nc(-c2cccc(NS(=O)(=O)c3c(F)cccc3F)c2F)c(-c2ccnc(N)n2)s1 [Dabrafenib] + O=C(c1cc(Cc2n[nH]c(=O)c3ccccc23)ccc1F)N1CCN(C(=O)C2CC2)CC1 [Olaparib] (partner 8 µM)
# Procedure, shortened: as §1
Cell Line,relative viability (VX-702 + Pictilisib; first compound 0.02 µM),relative viability (VX-702 + Pictilisib; first compound 0.2 µM),relative viability (VX-702 + Pictilisib; first compound 0.6325 µM),relative viability (VX-702 + Pictilisib; first compound 2 µM),relative viability (VX-702 + Vorinostat; first compound 0.02 µM),relative viability (VX-702 + Vorinostat; first compound 0.2 µM),relative viability (VX-702 + Vorinostat; first compound 0.6325 µM),relative viability (VX-702 + Vorinostat; first compound 2 µM),relative viability (Dabrafenib + Pemetrexed; first compound 0.003 µM),relative viability (Dabrafenib + Pemetrexed; first compound 0.009487 µM),relative viability (Dabrafenib + Pemetrexed; first compound 0.03 µM),relative viability (Dabrafenib + Pemetrexed; first compound 0.09487 µM),relative viability (Dabrafenib + Pemetrexed; first compound 0.3 µM),relative viability (Dabrafenib + Olaparib; first compound 0.003 µM),relative viability (Dabrafenib + Olaparib; first compound 0.009487 µM),relative viability (Dabrafenib + Olaparib; first compound 0.03 µM),relative viability (Dabrafenib + Olaparib; first compound 0.09487 µM),relative viability (Dabrafenib + Olaparib; first compound 0.3 µM)
NCI-H460,0.361,0.153,0.295,0.257,0.889,0.692,0.769,0.925,0.0599,0.0868,0.0634,0.0648,0.0684,0.493,0.398,0.397,0.362,0.385
NCI-H838,0.467,0.408,0.517,0.47,0.737,0.702,0.751,0.787,0.264,0.252,0.239,0.239,0.245,0.772,0.792,0.735,0.68,0.873
NCI-H2087,0.861,0.729,0.881,0.783,0.673,0.797,0.662,0.958,,0.64,0.662,0.695,0.643,,0.535,0.541,0.385,0.532
NCI-H596,0.398,0.246,0.392,0.389,0.636,0.439,0.637,0.581,,0.492,0.44,0.579,0.469,,0.68,0.675,0.651,0.752
HCC-827,0.856,0.701,0.99,0.355,0.879,0.799,0.885,0.827,0.224,0.288,0.243,,0.281,0.65,0.79,0.62,,0.671
NCI-H1755,0.395,0.389,0.409,0.486,0.929,0.748,0.731,0.877,0.36,0.427,0.395,0.47,0.424,0.845,0.819,0.788,0.859,0.886
SK-LU-1,0.647,0.501,0.563,0.645,0.9,0.716,0.767,1.04,,1.06,0.898,0.865,0.715,,0.521,0.372,0.347,0.406
NCI-H2347,0.754,0.596,0.703,0.347,0.561,0.594,0.454,0.591,,0.445,0.362,0.399,0.405,,0.629,0.552,0.553,0.599
